# The kinase profiling compilation of Christmann-Franck et al. (2016)
# Key:
# Experiment in all cases: KINOMEscan competition binding
# EGFR (human) = EGFR (human) (UniProt P00533); conditions: compound 10.0 µM
# MAPK13 (human) = MAPK13 (human) (UniProt O15264); conditions: compound 10.0 µM
# CHEK1 (human) = CHEK1 (human) (UniProt O14757); conditions: compound 10.0 µM
# SGK110 (human) = SGK110 (human) (UniProt P0C264); conditions: compound 10.0 µM
# NLK (human) = NLK (human) (UniProt Q9UBE8); conditions: compound 10.0 µM
# ERBB4 (human) = ERBB4 (human) (UniProt Q15303); conditions: compound 10.0 µM
# MST4 (human) = MST4 (human) (UniProt Q9P289); conditions: compound 10.0 µM
# PRKD3 (human) = PRKD3 (human) (UniProt O94806); conditions: compound 10.0 µM
# [1] = system: EGFR (human), P00533 [L858R]; conditions: compound 10.0 µM
# CSF1R (human) = CSF1R (human) (UniProt P07333); conditions: compound 10.0 µM
# [2] = system: PIK3CA (human), P42336 [E545K]; conditions: compound 10.0 µM
# GRK1 (human) = GRK1 (human) (UniProt Q15835); conditions: compound 10.0 µM
# [3] = system: PIK3CA (human), P42336 [Q546K]; conditions: compound 10.0 µM
# MAP4K1 (human) = MAP4K1 (human) (UniProt Q92918); conditions: compound 10.0 µM
# TGFBR1 (human) = TGFBR1 (human) (UniProt P36897); conditions: compound 10.0 µM
# MARK4 (human) = MARK4 (human) (UniProt Q96L34); conditions: compound 10.0 µM
# STK24 (human) = STK24 (human) (UniProt Q9Y6E0); conditions: compound 10.0 µM
# DAPK1 (human) = DAPK1 (human) (UniProt P53355); conditions: compound 10.0 µM
# PRKCE (human) = PRKCE (human) (UniProt Q02156); conditions: compound 10.0 µM
# RPS6KA3 KD1 (human) = RPS6KA3 KD1 (human) (UniProt P51812); conditions: compound 10.0 µM
# ACVR2A (human) = ACVR2A (human) (UniProt P27037); conditions: compound 10.0 µM
# CDK13 (human) = CDK13 (human) (UniProt Q14004); conditions: compound 10.0 µM
# CDKL1 (human) = CDKL1 (human) (UniProt Q00532); conditions: compound 10.0 µM
# INSRR (human) = INSRR (human) (UniProt P14616); conditions: compound 10.0 µM
# CAMKK2 (human) = CAMKK2 (human) (UniProt Q96RR4); conditions: compound 10.0 µM
# AURKC (human) = AURKC (human) (UniProt Q9UQB9); conditions: compound 10.0 µM
# RPS6KA6 KD2 (human) = RPS6KA6 KD2 (human) (UniProt Q9UK32)
# PIM3 (human) = PIM3 (human) (UniProt Q86V86); conditions: compound 10.0 µM
# MATK (human) = MATK (human) (UniProt P42679); conditions: compound 10.0 µM
# PRKG1 (human) = PRKG1 (human) (UniProt Q13976); conditions: compound 10.0 µM
# TAOK3 (human) = TAOK3 (human) (UniProt Q9H2K8); conditions: compound 10.0 µM
# CSK (human) = CSK (human) (UniProt P41240); conditions: compound 10.0 µM
# ROS1 (human) = ROS1 (human) (UniProt P08922); conditions: compound 10.0 µM
# EPHB4 (human) = EPHB4 (human) (UniProt P54760); conditions: compound 10.0 µM
# MLTK (human) = MLTK (human) (UniProt Q9NYL2); conditions: compound 10.0 µM
# FGFR1 (human) = FGFR1 (human) (UniProt P11362); conditions: compound 10.0 µM
# CAMK4 (human) = CAMK4 (human) (UniProt Q16566); conditions: compound 10.0 µM
# TGFBR2 (human) = TGFBR2 (human) (UniProt P37173); conditions: compound 10.0 µM
# [4] = molecular target: JAK1 JH2 pseudokinase (human) (UniProt P23458); conditions: compound 10.0 µM
# PAK6 (human) = PAK6 (human) (UniProt Q9NQU5); conditions: compound 10.0 µM
# PIP4K2B (human) = PIP4K2B (human) (UniProt P78356); conditions: compound 10.0 µM
# RPS6KA6 KD2 (human), sequence (Q9UK32 whole entry, looked up): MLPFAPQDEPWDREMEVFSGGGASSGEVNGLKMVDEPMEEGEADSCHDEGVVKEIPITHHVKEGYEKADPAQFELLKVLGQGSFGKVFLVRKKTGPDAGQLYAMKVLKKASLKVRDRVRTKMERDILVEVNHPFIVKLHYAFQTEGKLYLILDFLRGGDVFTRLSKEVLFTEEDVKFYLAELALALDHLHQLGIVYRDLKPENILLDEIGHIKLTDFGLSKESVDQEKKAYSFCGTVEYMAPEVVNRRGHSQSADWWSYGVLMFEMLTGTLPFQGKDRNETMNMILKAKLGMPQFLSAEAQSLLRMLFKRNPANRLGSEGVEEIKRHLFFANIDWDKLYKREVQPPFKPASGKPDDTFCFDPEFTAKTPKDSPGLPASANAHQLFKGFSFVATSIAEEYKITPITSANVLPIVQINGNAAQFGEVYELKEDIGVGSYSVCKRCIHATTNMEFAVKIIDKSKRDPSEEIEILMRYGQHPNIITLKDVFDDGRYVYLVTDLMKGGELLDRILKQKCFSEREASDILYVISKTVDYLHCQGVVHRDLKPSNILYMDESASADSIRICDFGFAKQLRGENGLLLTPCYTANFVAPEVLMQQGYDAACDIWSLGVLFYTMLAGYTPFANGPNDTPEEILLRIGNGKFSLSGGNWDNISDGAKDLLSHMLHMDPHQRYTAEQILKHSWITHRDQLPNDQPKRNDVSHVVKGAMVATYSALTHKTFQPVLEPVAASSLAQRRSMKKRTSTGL
# PRKCE (human), sequence (Q02156 whole entry, looked up): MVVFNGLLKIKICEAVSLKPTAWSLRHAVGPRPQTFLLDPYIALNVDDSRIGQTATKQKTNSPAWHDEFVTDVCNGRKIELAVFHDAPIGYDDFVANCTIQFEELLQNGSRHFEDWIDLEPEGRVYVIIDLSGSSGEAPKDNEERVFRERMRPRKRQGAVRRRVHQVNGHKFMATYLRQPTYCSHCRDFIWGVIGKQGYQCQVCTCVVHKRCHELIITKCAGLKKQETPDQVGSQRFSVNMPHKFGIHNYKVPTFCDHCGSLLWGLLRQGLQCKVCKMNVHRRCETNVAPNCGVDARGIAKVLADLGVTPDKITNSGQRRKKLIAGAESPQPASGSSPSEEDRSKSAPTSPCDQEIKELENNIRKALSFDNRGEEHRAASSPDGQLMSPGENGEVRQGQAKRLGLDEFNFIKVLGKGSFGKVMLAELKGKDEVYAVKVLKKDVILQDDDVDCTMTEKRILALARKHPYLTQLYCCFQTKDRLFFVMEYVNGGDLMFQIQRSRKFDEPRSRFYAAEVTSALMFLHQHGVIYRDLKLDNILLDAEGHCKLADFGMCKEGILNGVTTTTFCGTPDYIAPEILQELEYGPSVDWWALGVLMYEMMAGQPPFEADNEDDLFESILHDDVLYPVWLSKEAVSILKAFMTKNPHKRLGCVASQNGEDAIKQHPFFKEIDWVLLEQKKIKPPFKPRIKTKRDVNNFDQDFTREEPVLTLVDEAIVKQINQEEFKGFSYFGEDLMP
# SGK110 (human), sequence (P0C264 whole entry, looked up): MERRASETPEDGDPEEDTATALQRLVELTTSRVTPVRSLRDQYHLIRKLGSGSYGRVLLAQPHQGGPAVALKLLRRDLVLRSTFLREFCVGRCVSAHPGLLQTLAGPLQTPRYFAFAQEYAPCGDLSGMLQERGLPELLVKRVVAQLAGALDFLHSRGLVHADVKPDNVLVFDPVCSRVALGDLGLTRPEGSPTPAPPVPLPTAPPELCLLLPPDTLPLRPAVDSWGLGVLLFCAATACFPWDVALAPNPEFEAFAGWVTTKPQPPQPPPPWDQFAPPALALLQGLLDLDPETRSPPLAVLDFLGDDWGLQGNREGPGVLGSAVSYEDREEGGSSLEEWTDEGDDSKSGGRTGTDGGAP
# STK24 (human), sequence (Q9Y6E0 whole entry, looked up): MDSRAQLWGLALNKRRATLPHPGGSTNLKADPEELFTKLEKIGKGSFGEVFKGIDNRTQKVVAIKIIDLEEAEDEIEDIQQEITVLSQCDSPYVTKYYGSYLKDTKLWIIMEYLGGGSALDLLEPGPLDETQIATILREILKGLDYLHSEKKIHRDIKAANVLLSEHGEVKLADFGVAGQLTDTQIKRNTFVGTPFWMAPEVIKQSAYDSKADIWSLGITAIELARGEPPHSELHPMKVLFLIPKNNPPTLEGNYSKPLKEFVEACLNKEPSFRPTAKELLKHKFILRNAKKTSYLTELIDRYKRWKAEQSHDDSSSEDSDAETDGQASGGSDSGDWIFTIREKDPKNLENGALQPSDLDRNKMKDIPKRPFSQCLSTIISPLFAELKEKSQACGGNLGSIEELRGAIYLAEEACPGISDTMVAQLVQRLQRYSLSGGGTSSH
# TGFBR2 (human), sequence (P37173 whole entry, looked up): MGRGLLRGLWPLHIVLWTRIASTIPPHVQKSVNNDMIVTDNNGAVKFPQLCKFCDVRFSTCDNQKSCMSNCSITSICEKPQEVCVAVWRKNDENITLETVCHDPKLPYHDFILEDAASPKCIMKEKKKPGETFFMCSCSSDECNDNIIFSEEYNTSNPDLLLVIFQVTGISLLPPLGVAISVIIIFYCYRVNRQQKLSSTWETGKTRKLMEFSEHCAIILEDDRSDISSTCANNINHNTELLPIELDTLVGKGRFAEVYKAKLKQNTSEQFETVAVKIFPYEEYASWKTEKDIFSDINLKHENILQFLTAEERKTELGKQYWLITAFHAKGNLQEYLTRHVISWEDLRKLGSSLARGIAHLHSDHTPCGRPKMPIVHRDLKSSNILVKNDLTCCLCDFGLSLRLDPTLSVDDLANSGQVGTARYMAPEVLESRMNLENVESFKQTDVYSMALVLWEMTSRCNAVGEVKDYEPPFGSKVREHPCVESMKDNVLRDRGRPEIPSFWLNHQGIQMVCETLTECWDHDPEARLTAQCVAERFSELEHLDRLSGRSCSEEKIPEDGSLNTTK
# ERBB4 (human), sequence (Q15303 whole entry, looked up): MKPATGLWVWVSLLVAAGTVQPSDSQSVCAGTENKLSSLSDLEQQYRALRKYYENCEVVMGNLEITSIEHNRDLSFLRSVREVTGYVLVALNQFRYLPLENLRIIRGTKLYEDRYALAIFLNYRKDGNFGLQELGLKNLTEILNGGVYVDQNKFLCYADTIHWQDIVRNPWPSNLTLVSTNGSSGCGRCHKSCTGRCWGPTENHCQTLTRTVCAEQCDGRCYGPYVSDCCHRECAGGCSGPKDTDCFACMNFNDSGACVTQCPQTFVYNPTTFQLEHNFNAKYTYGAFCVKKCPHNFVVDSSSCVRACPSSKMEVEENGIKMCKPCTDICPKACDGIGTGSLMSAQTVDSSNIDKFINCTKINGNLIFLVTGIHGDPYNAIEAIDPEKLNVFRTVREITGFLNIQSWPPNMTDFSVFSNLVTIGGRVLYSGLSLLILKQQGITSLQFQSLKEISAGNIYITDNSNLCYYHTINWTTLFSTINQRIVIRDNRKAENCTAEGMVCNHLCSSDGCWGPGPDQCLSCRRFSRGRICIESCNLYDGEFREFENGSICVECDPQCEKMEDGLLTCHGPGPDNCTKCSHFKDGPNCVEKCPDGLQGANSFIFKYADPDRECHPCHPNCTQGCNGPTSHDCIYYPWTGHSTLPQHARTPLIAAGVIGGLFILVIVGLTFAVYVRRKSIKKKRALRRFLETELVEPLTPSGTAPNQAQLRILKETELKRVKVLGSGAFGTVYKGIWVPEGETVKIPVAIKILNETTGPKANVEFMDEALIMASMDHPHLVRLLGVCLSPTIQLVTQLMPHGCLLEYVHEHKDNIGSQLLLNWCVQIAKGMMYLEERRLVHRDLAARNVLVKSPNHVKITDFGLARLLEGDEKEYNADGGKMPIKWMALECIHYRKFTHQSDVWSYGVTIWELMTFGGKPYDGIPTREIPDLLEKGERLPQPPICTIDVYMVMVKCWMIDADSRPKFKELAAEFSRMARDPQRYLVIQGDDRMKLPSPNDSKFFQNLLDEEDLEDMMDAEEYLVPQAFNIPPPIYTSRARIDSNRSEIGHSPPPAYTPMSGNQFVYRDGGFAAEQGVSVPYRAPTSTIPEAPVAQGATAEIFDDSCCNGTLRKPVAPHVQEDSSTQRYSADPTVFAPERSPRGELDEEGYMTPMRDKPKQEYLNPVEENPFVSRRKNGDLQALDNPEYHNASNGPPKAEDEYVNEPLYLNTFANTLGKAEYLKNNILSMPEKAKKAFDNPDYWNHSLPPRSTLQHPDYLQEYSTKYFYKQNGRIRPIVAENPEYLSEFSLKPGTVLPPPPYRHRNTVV
# MAPK13 (human), sequence (O15264 whole entry, looked up): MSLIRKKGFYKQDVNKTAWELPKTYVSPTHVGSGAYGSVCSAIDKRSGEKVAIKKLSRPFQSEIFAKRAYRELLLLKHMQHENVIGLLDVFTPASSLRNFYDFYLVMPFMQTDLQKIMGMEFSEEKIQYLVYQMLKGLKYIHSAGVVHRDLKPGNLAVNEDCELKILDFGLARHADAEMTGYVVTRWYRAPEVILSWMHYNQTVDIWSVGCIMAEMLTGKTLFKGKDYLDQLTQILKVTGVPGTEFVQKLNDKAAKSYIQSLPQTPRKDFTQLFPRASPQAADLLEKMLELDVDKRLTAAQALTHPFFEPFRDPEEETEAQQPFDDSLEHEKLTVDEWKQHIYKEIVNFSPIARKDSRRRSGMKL
# MST4 (human), sequence (Q9P289 whole entry, looked up): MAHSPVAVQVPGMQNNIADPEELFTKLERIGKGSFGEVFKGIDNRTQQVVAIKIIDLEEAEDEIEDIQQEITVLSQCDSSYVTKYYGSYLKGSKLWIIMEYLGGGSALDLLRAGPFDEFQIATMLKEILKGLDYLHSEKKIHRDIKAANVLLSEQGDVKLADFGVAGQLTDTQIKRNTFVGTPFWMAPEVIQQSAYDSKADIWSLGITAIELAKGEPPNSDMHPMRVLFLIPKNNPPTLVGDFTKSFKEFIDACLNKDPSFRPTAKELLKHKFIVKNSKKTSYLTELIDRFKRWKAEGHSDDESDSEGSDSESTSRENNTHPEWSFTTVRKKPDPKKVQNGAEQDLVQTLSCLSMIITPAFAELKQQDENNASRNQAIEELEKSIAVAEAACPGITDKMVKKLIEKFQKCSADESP
structure (smiles),measurement,setting,value
COc1cc(C(=O)N2CCC(N3CCN(C)CC3)CC2)ccc1Nc1ncc2c(n1)N(C)c1ccccc1C(=O)N2C,"kinase still bound, per cent of control",EGFR (human),84%
same,"kinase still bound, per cent of control",MAPK13 (human),72%
same,"kinase still bound, per cent of control",CHEK1 (human),100%
same,"kinase still bound, per cent of control",SGK110 (human),62%
same,"kinase still bound, per cent of control",NLK (human),50%
same,"kinase still bound, per cent of control",ERBB4 (human),100%
same,"kinase still bound, per cent of control",MST4 (human),95%
same,"kinase still bound, per cent of control",PRKD3 (human),42%
same,"kinase still bound, per cent of control",[1],79%
same,"kinase still bound, per cent of control",CSF1R (human),98%
same,"kinase still bound, per cent of control",[2],100%
same,"kinase still bound, per cent of control",GRK1 (human),91%
same,"kinase still bound, per cent of control",[3],91%
same,"kinase still bound, per cent of control",MAP4K1 (human),100%
same,"kinase still bound, per cent of control",TGFBR1 (human),100%
same,"kinase still bound, per cent of control",MARK4 (human),78%
same,"kinase still bound, per cent of control",STK24 (human),87%
same,"kinase still bound, per cent of control",DAPK1 (human),73%
same,"kinase still bound, per cent of control",PRKCE (human),100%
same,"kinase still bound, per cent of control",RPS6KA3 KD1 (human),77%
same,"kinase still bound, per cent of control",ACVR2A (human),100%
same,residual activity,CDK13 (human),100%
same,residual activity,CDKL1 (human),78%
same,"kinase still bound, per cent of control",INSRR (human),97%
same,"kinase still bound, per cent of control",CAMKK2 (human),31%
same,"kinase still bound, per cent of control",AURKC (human),50%
same,Kd,RPS6KA6 KD2 (human),620 nM
same,"kinase still bound, per cent of control",RPS6KA6 KD2 (human); compound 10.0 µM,2.2%
same,"kinase still bound, per cent of control",PIM3 (human),88%
same,"kinase still bound, per cent of control",MATK (human),100%
same,"kinase still bound, per cent of control",PRKG1 (human),98%
same,"kinase still bound, per cent of control",TAOK3 (human),24%
same,"kinase still bound, per cent of control",CSK (human),90%
same,"kinase still bound, per cent of control",ROS1 (human),12%
same,"kinase still bound, per cent of control",EPHB4 (human),100%
same,"kinase still bound, per cent of control",MLTK (human),99%
same,"kinase still bound, per cent of control",FGFR1 (human),86%
same,"kinase still bound, per cent of control",CAMK4 (human),79%
same,"kinase still bound, per cent of control",TGFBR2 (human),100%
same,"kinase still bound, per cent of control",[4],92%
same,"kinase still bound, per cent of control",PAK6 (human),98%
same,"kinase still bound, per cent of control",PIP4K2B (human),100%
